# From US11065257B2, “Substituted pyrazoloazepin-4-ones and their use as phosphodiesterase inhibitors” (LEO Pharma A/S, priority 2016, dated 2021)
# Target: T1, human PDE4D catalytic domain (Homo sapiens, UniProt Q08499)
# T1 construct: UniProt no; Q08499 [S380-L740]
# Experiment: PDE4 Assay
# Format: biochemical
# Conditions: human PDE4D catalytic domain (S380-L740), TR-FRET with FAM-cAMP; expressed as a range of IC50; read-out: PDE4 Potency Range
# Procedure: The human PDE4D catalytic domain (UniProt no. Q08499 [S380-L740]) was incubated with a mixture of non-labelled cAMP (cyclic adenosine monophosphate) and fluorescein amidite (FAM) conjugated cAMP and titrated test or reference compound. Following brief incubation the enzymatic reaction was stopped by addition of binding buffer containing nanoparticles with immobilized trivalent metal ions capable of binding 1) AMP phospho groups and 2) terbium (Tb) donor fluorophores. Subsequent excitation of the Tb donor triggers time-resolved FRET to adjacent FAM acceptor molecules resulting in light emission. In the presence of a PDE4 inhibitor, AMP generation was reduced resulting in a lower fluorescence signal. The cAMP phosphodiester is not bound by the detection system.
# The results were calculated as the molar concentrations resulting in 50% inhibition of the substrate cleavage compared to controls samples, and are expressed as a range of IC50 (nM).
# T1 sequence (Q08499 380-740): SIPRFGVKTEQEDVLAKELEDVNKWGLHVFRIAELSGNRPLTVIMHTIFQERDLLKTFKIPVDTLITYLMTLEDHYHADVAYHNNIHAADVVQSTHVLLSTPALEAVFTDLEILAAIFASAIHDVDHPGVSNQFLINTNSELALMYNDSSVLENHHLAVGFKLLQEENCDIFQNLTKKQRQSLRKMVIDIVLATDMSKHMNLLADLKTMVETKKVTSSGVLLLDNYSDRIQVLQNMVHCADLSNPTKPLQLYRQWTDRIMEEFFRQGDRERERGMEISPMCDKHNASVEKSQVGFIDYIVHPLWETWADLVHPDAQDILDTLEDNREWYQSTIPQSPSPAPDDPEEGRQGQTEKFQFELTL
row,SMILES,IC50 [nM]
1,"CCc1nn(CCCOC(=O)C2CCS(=O)(=O)CC2)c2c1C(=O)NCC1(CCOCC1)C2 [Example 103, 3-(3-ethyl-4-oxo-spiro[6,8-dihydro-5H-pyrazolo[4,3-c]azepine-7,4′-tetrahydropyran]-1-yl)propyl 1,1-dioxothiane-4-carboxylate]",> 500
2,"CCc1nn(CCCOC(=O)c2c(C)nn(C)c2C)c2c1C(=O)NCC1(CCOCC1)C2 [Example 91, 3-(3-ethyl-4-oxo-spiro[6,8-dihydro-5H-pyrazolo[4,3-c]azepine-7,4′-tetrahydropyran]-1-yl)propyl 1,3,5-trimethylpyrazole-4-carboxylate]",100 to 500
3,"CCc1nn(CCCOC(=O)c2snnc2C)c2c1C(=O)NCC1(CCOCC1)C2 [Example 83, 3-(3-ethyl-4-oxo-spiro[6,8-dihydro-5H-pyrazolo[4,3-c]azepine-7,4′-tetrahydropyran]-1-yl)propyl 4-methylthiadiazole-5-carboxylate]",> 500
4,"CCc1nn(CCCOC(=O)c2coc(C)n2)c2c1C(=O)NCC1(CCOCC1)C2 [Example 46, 3-(3-ethyl-4-oxo-spiro[6,8-dihydro-5H-pyrazolo[4,3-c]azepine-7,4′-tetrahydropyran]-1-yl)propyl 2-methyloxazole-4-carboxylate]",> 500
5,"CCc1nn(CCCOC(=O)C2CCS(=O)(=O)C2)c2c1C(=O)NCC1(CCOCC1)C2 (stereo not drawn) [Example 96, 3-(3-ethyl-4-oxo-spiro[6,8-dihydro-5H-pyrazolo[4,3-c]azepine-7,4′-tetrahydropyran]-1-yl)propyl 1,1-dioxothiolane-3-carboxylate]",> 500
6,"CCc1nn(CCCOC(=O)c2ncccn2)c2c1C(=O)NCC1(CCOCC1)C2 [Example 31, 3-(3-ethyl-4-oxo-spiro[6,8-dihydro-5H-pyrazolo[4,3-c]azepine-7,4′-tetrahydropyran]-1-yl)propyl pyrimidine-2-carboxylate]",> 500
7,"CCc1nn(CCOC(=O)C2CCOCC2)c2c1C(=O)NCC1(CCOCC1)C2 [Example 8, 2-(3-ethyl-4-oxo-spiro[6,8-dihydro-5H-pyrazolo[4,3-c]azepine-7,4′-tetrahydropyran]-1-yl)ethyl tetrahydropyran-4-carboxylate]",> 500
8,"CCc1nn(CCCOC(=O)C2CCSCC2)c2c1C(=O)NCC1(CCOCC1)C2 [Example 85, 3-(3-ethyl-4-oxo-spiro[6,8-dihydro-5H-pyrazolo[4,3-c]azepine-7,4′-tetrahydropyran]-1-yl)propyl tetrahydrothiopyran-4-carboxylate]",100 to 500
9,"CCc1nn(CCCOC(=O)C2CCOC2)c2c1C(=O)NCC1(CCOCC1)C2 (stereo not drawn) [Example 28, 3-(3-ethyl-4-oxo-spiro[6,8-dihydro-5H-pyrazolo[4,3-c]azepine-7,4′-tetrahydropyran]-1-yl)propyl tetrahydrofuran-3-carboxylate]",> 500
10,"CCc1nn(CCCOC(=O)c2oncc2C)c2c1C(=O)NCC1(CCOCC1)C2 [Example 42, 3-(3-ethyl-4-oxo-spiro[6,8-dihydro-5H-pyrazolo[4,3-c]azepine-7,4′-tetrahydropyran]-1-yl)propyl 4-methylisoxazole-5-carboxylate]",100 to 500
11,"CCc1nn(CCCOC(=O)c2scnc2C)c2c1C(=O)NCC1(CCOCC1)C2 [Example 81, 3-(3-ethyl-4-oxo-spiro[6,8-dihydro-5H-pyrazolo[4,3-c]azepine-7,4′-tetrahydropyran]-1-yl)propyl 4-methylthiazole-5-carboxylate]",100 to 500
12,"CCc1nn(C[C@@H](C)COC(=O)C2CCOC2)c2c1C(=O)NCC1(CCOCC1)C2 (stereo partly drawn) [Example 108, [(2R)-3-(3-ethyl-4-oxo-spiro[6,8-dihydro-5H-pyrazolo[4,3-c]azepine-7,4′-tetrahydropyran]-1-yl)-2-methyl-propyl] tetrahydrofuran-3-carboxylate]",< 100
13,"CCc1nn(CCOC(=O)Cc2cc(C)no2)c2c1C(=O)NCC1(CCOCC1)C2 [Example 12, 2-(3-ethyl-4-oxo-spiro[6,8-dihydro-5H-pyrazolo[4,3-c]azepine-7,4′-tetrahydropyran]-1-yl)ethyl 2-(3-methylisoxazol-5-yl)acetate]",> 500
14,"CCc1nn(CCCOC(=O)c2cnc(C)[nH]2)c2c1C(=O)NCC1(CCOCC1)C2 [Example 36, 3-(3-ethyl-4-oxo-spiro[6,8-dihydro-5H-pyrazolo[4,3-c]azepine-7,4′-tetrahydropyran]-1-yl)propyl 2-methyl-1H-imidazole-4-carboxylate]",100 to 500
15,"CCc1nn(CCCOC(=O)c2cc(C)no2)c2c1C(=O)NCC1(CCOCC1)C2 [Example 43, 3-(3-ethyl-4-oxo-spiro[6,8-dihydro-5H-pyrazolo[4,3-c]azepine-7,4′-tetrahydropyran]-1-yl)propyl 3-methylisoxazole-5-carboxylate]",100 to 500
16,"CCc1nn(CCCOC(=O)c2c(C)noc2C)c2c1C(=O)NCC1(CCOCC1)C2 [Example 75, 3-(3-ethyl-4-oxo-spiro[6,8-dihydro-5H-pyrazolo[4,3-c]azepine-7,4′-tetrahydropyran]-1-yl)propyl 3,5-dimethylisoxazole-4-carboxylate]",> 500
17,"CCc1nn(CCCOC(=O)c2cc[nH]n2)c2c1C(=O)NCC1(CCOCC1)C2 [Example 18, 3-(3-ethyl-4-oxo-spiro[6,8-dihydro-5H-pyrazolo[4,3-c]azepine-7,4′-tetrahydropyran]-1-yl)propyl 1H-pyrazole-3-carboxylate]",100 to 500
18,"CCc1nn(C[C@@H](C)COC(=O)C2CCOCC2)c2c1C(=O)NCC1(CCOCC1)C2 [Example 109, [(2R)-3-(3-ethyl-4-oxo-spiro[6,8-dihydro-5H-pyrazolo[4,3-c]azepine-7,4′-tetrahydropyran]-1-yl)-2-methyl-propyl] tetrahydropyran-4-carboxylate]",< 100
19,"CCc1nn(CCCOC(=O)c2nnc(C)[nH]2)c2c1C(=O)NCC1(CCOCC1)C2 [Example 50, 3-(3-ethyl-4-oxo-spiro[6,8-dihydro-5H-pyrazolo[4,3-c]azepine-7,4′-tetrahydropyran]-1-yl)propyl 5-methyl-4H-1,2,4-triazole-3-carboxylate]",> 500
20,"CCc1nn(CCCOC(=O)c2noc(C)c2C)c2c1C(=O)NCC1(CCOCC1)C2 [Example 74, 3-(3-ethyl-4-oxo-spiro[6,8-dihydro-5H-pyrazolo[4,3-c]azepine-7,4′-tetrahydropyran]-1-yl)propyl 4,5-dimethylisoxazole-3-carboxylate]",100 to 500
21,"CCc1nn(CCCOC(=O)c2cnc(C)s2)c2c1C(=O)NCC1(CCOCC1)C2 [Example 82, 3-(3-ethyl-4-oxo-spiro[6,8-dihydro-5H-pyrazolo[4,3-c]azepine-7,4′-tetrahydropyran]-1-yl)propyl 2-methylthiazole-5-carboxylate]",100 to 500
22,"CCc1nn(CCCOC(=O)C2CCCN(C(C)=O)C2)c2c1C(=O)NCC1(CCOCC1)C2 (stereo not drawn) [Example 98, 3-(3-ethyl-4-oxo-spiro[6,8-dihydro-5H-pyrazolo[4,3-c]azepine-7,4′-tetrahydropyran]-1-yl)propyl 1-acetylpiperidine-3-carboxylate]",> 500
23,"CCc1nn(CCOC(=O)Cc2cccn2C)c2c1C(=O)NCC1(CCOCC1)C2 [Example 9, 2-(3-ethyl-4-oxo-spiro[6,8-dihydro-5H-pyrazolo[4,3-c]azepine-7,4′-tetrahydropyran]-1-yl)ethyl 2-(1-methylpyrrol-2-yl)acetate]",> 500
24,"CCc1nn(CCOC(=O)c2cnn(C)c2)c2c1C(=O)NCC1(CCOCC1)C2 [Example 3, 2-(3-ethyl-4-oxo-spiro[6,8-dihydro-5H-pyrazolo[4,3-c]azepine-7,4′-tetrahydropyran]-1-yl)ethyl 1-methylpyrazole-4-carboxylate]",> 500
25,"CCc1nn(CCCOC(=O)c2cc(C)nnc2C)c2c1C(=O)NCC1(CCOCC1)C2 [Example 88, 3-(3-ethyl-4-oxo-spiro[6,8-dihydro-5H-pyrazolo[4,3-c]azepine-7,4′-tetrahydropyran]-1-yl)propyl 3,6-dimethylpyridazine-4-carboxylate]",> 500
26,"CCc1nn(CCCOC(=O)C2CCCOC2)c2c1C(=O)NCC1(CCOCC1)C2 (stereo not drawn) [Example 58, 3-(3-ethyl-4-oxo-spiro[6,8-dihydro-5H-pyrazolo[4,3-c]azepine-7,4′-tetrahydropyran]-1-yl)propyl tetrahydropyran-3-carboxylate]",> 500
27,"CCc1nn(CCCOC(=O)c2nc[nH]n2)c2c1C(=O)NCC1(CCOCC1)C2 [Example 26, 3-(3-ethyl-4-oxo-spiro[6,8-dihydro-5H-pyrazolo[4,3-c]azepine-7,4′-tetrahydropyran]-1-yl)propyl 1H-1,2,4-triazole-3-carboxylate]",> 500
28,"CCc1nn(CCCOC(=O)C2CCOCC2)c2c1C(=O)NCC1(CCOCC1)C2 [Example 59, 3-(3-ethyl-4-oxo-spiro[6,8-dihydro-5H-pyrazolo[4,3-c]azepine-7,4′-tetrahydropyran]-1-yl)propyl tetrahydropyran-4-carboxylate]",> 500
29,"CCc1nn(CCCOC(=O)c2ccnc(C)n2)c2c1C(=O)NCC1(CCOCC1)C2 [Example 68, 3-(3-ethyl-4-oxo-spiro[6,8-dihydro-5H-pyrazolo[4,3-c]azepine-7,4′-tetrahydropyran]-1-yl)propyl 2-methylpyrimidine-4-carboxylate]",> 500
30,"CCc1nn(CCCOC(=O)c2c[nH]nn2)c2c1C(=O)NCC1(CCOCC1)C2 [Example 25, 3-(3-ethyl-4-oxo-spiro[6,8-dihydro-5H-pyrazolo[4,3-c]azepine-7,4′-tetrahydropyran]-1-yl)propyl 1H-triazole-4-carboxylate]",100 to 500
